Assay results: patent US12661362B2, “Methods for the prevention and treatment of hearing loss” (Ting Therapeutics LLC, priority 2020, dated 2026)

Assays:
[1] = test system: HEI-OC1 cells; test: Caspase-Glo 3/7 assay in HEI-OC1 cells treated with Cisplatin; format: cell-based, mouse; conditions: Cisplatin 50 μM; for caspase activity: at a dosage of ~40 μM
Description: Now referring to FIG. 3A, and FIGS. 3D-3E, compounds protect from cisplatin toxicity in the mouse inner ear cell line. House Ear Institute-Organ of Corti 1 (HEI-OC1) cells (House Research Institute) were maintained in high-glucose Dulbecco's modified Eagle medium supplemented with 10% fetal bovine serum (Life Technologies, USA) at 33° C. and 10% CO2 as previously described (Kalinec et al., 2003). Cells were seeded at 8,000 cells/well in 96 well plates and left to attach overnight. Now referring to FIG. 3A, For the drug screening, HEI-OC1 cells were pretreated with 30 drug candidates at concentrations ranging from 2 nM to 40 μM one hour before receiving cisplatin. The cisplatin dose (50 μM) was based on our previously published dose response curve. The cells were co-incubated with cisplatin and drug candidates for an additional 19 hours prior to Caspase-Glo 3/7 assay (Promega, Madison, WI) as previously shown. Additionally, […] kenpaullone-treated cells were used as positive controls to validate our results. The DMSO concentration in drug preparation was adjusted to 0.1% v/v and it was verified that 0.5% DMSO had no effect on the cell death kinetics (Hall et al., 2014). Results of the assay were run in triplicate and normalized to cisplatin-only and media-only controls. The percent caspase activity was used to determine the relative protective effect of each compound. The luminescence detection representing caspase activity in each well was obtained using a Cytation Hybrid Multi-Mode Reader (Biotek, Winooski, VT, USA). The percent protection of the cells was calculated using caspase 3/7 readouts and the following formula: […]
In the following examples, Niclosamide, 5-chloro-N-(2-chloro-4-nitrophenyl)-2-hydroxy-benzamide, with a ≥95% purity was used for all experiments (Cayman Chemical, USA).

[2] = test system: FVB/NJ mice; test: Safety monitoring of drugs IP in FVB/NJ mice, with or without Cisplatin; format: in vivo, mouse; conditions: for weight loss, pain and distress: Niclosamide 10, Ingenol 0.3, Elesclomol 5 mg/kg/day IP, 4 consecutive days
Description: To investigate the drugs' effects on mammalian auditory function in vivo, we first treated 5-7 weeks old FVB/NJ mice with […] drug candidates: Niclosamide (10 mg/kg/day), Ingenol (0.3 mg/kg/day), Elesclomol (5 mg/kg/day), for 4 consecutive days (IP) to monitor safety of the drugs. All tested doses were determined based on previous published data showing maximum non-toxic dose through intraperitoneal (IP) injection.
Baseline auditory brainstem response (ABR) were measured on 16 mice divided in 3 groups receiving Ingenol, Elesclomol, and Niclosamide. The mice received the drug doses described above, then on day 2 of drug injection mice also received 30 mg/kg Cisplatin (IP; 4 mice per group).

[3] = test system: zebrafish neuromast HCs; test: Niclosamide/ezetimibe combination hair cell protection in Cisplatin-treated zebrafish (Loewe synergy); format: in vivo; conditions: 1.48 μM, cisplatin 300 μM
Description: Now referring to FIGS. 6A-6B, 5 dpf zebrafish were either incubated with vehicle (DMSO), cisplatin alone at 300 μM concentration, cisplatin and ezetimibe (0.002 μM to 13.3 μM), cisplatin and niclosamide (0.02 nM to 18.3 nM), or cisplatin and combination ezetimibe/niclosamide. After 6 hours, animals were transferred to fresh water for 1 hour and then sacrificed and processed for immunohistochemistry and HC count as described above. To further elucidate whether Niclosamide, synergizes with Nrf2 activators to protect zebrafish HCs from Cisplatin damage, we tested the extent of HC damage in presence of Niclosamide and a Nrf2 activator, ezetimibe.
A three-dimensional contour plot (A) showing dose response of neuromast hair cell protection in zebrafish treated with varying concentrations of niclosamide and ezetimibe mapped to synergy distribution. […] Other dose combinations showing synergy are shown in dark blue boxes. Dose combinations with scores of 0 and 1 show additive effect. *P<5×10−2; **P<10−3, ***P<10−4 versus control fish, One-sample t-test run by the Combenefit software44. Data is shown as mean±standard deviation.
Zebrafish were treated with combinations of Niclosamide (ranging from 0.02-18.3 nM) and EZ (ranging from 0.0183-13.3 μM).

[4] = test system: zebrafish neuromast HCs; test: Zebrafish lateral-line neuromast hair cell protection against Cisplatin; format: in vivo, Danio rerio; conditions: doses of 0.002, 0.0183, 0.165 and 1.48 μM; Cisplatin 4 hours
Description: Danio rerio experimental larvae were obtained by pair mating of adult fish maintained at Creighton University by standard methods approved by the Institutional Animal Care and Use Committee. […] We used Tg(pou4f3:mGFP) expressing a membrane bound GFP in HCs. Experimental fish were maintained at 28.5° C. in E3 media (5 mM NaCl, 0.17 mM KCl, 0.33 mM CaCl2) and […], pH 7.2). Animals were cryoanaesthetized after drug treatment and prior to fixation. The neuromasts inspected, S03 and 01-2, were part of the cranial system and included the otic, middle, and opercular neuromasts.
Subsequently, animals were transferred to E3 water for 5 hours and fixed in 4% paraformaldehyde (PFA) overnight (26). Neuromast HCs were immunolabeled with anti-otoferlin (HCS-1, DSHB) and anti-GFP (NB100-1614, Novus Biologicals). These two markers were used to detect and count neuromast HCs to reduce the chances of missing some of the HCs after the treatment since we previously noticed that incubation with the compounds can affect GFP expression more difficult to detect under a fluorescence microscope. Otic, middle, and opercular neuromasts were identified, and HCs at S03 (supraorbital line neuromast) and 01-2 (Otic line neuromasts) were manually counted using a Zeiss AxioSkop 2 fluorescence microscope with a 40× oil objective. Compounds were then evaluated on efficiency and potency, with the top-rated compounds showing high protection at lower concentrations.

[5] = chemotherapy; cited from earlier work

CN(NC(=O)CC(=O)NN(C)C(=S)c1ccccc1)C(=S)c1ccccc1 [Elesclomol]
caspase activity [1]: 20%
caspase-3/7 activity relative to control cells ([1]; dose of 40 μM): reduce caspase activity to comparable levels as control cells
weight loss, pain and distress [2]: None of the mice showed reduced weight loss or signs of pain and distress

O=C1[C@H](CC[C@H](O)c2ccc(F)cc2)[C@@H](c2ccc(O)cc2)N1c1ccc(F)cc1 [Ezetimibe]
HC per neuromast counts, compound alone [3]: higher HC per neuromast counts

CC1=C[C@]23C(=O)[C@@H](C=C(CO)[C@@H](O)[C@]2(O)[C@H]1O)[C@H]1[C@@H](C[C@H]3C)C1(C)C [Ingenol]
protection against CIHL in zebrafish [4]: showed protection against CIHL
IC50 ([1]; Mus musculus, HEI-OC1, HEI-OC1 cells, read-out: calculated IC50 (percent protection from caspase 3/7 readout)): 1540 nM
caspase activity [1]: 30%
weight loss, pain and distress [2]: None of the mice showed reduced weight loss or signs of pain and distress

N.N.[Cl][Pt][Cl] [Cisplatin]
weight loss ([2]; Cisplatin alone, 30 mg/kg IP): 10-15%
treated cancer patients with permanent hearing loss [5]: 40-60%
